Measured values: patent publication US20170008888A1 (KYORIN PHARMACEUTICAL CO., LTD., priority 2014, published 2017)

Tests used:
[1] = target: T1, ACK (Homo sapiens, UniProt Q07912); experiment: Probe-based (AX9989) kinase profiling in Jurkat lysate: ACK; type: binding; details: read-out: ACK Inhibition % at indicated screening concentration; for inhibition at 1 µM: screening concentration 1 μM; for inhibition at 10 µM: screening concentration 10 μM
T1 construct: screened for activity against several kinases in Jurkat cells; endogenous in cells; host or cells: Jurkat cell lysate
T1 sequence (Q07912 whole entry): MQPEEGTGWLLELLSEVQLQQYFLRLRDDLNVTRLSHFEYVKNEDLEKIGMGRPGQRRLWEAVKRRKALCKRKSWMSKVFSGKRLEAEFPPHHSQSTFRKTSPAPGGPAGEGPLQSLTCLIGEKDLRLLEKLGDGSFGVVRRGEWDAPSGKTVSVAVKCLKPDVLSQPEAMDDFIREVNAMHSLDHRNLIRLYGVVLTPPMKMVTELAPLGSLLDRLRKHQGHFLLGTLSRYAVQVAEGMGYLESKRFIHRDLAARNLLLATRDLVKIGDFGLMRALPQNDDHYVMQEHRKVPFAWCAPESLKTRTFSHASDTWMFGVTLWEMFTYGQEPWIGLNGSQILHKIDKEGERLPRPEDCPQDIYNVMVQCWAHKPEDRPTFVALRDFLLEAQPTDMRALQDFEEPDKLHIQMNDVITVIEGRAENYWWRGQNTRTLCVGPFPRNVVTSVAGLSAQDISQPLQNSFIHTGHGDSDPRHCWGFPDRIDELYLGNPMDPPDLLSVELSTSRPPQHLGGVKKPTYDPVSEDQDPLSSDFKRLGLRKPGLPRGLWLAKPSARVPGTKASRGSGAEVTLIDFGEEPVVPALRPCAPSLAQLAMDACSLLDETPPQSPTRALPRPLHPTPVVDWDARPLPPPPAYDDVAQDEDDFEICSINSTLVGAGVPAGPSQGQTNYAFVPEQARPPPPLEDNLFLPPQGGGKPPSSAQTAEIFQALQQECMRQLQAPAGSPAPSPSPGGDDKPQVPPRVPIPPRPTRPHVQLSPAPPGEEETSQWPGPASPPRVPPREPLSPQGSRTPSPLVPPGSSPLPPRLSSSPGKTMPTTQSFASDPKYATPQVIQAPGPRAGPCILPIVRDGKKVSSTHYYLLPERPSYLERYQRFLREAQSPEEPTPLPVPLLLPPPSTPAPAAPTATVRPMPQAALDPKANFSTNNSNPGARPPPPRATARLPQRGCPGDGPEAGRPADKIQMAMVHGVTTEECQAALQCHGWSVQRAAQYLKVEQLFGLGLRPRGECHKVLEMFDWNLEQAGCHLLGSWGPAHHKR
Procedure, shortened: (§1)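 Jurkat lysate (50 mM HEPES pH 7.5, 150 mM NaCl, 0.1% Triton X-100, 20 mM MnCl2) pre-incubated 15 min with compound at room temperature, then labeled with 5 μM acyl phosphate ATP probe AX9989. Tryptic probe-labeled peptides streptavidin-captured and quantified by LC/MS; percent inhibition from decreased fragment intensity versus untreated.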

[2] = test system: human PBMCs; experiment: Human PBMC TNF-α response to endotoxin (ELISA); type: cell-based; details: 0.1 μg/ml LPS 16 h, read-out: EC50 for the inhibition of the human PBMC TNF-α response to endotoxin, ave. ± S.D.
Procedure, shortened: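 PBMCs at 2e6 cells/ml in RPMI 1640 with 10% charcoal-dextran-treated FBS were pre-treated 1 h at 37 °C with compound (4-point 1:5 dilution from 10 μM). Stimulation with 0.1 μg/ml E. coli 0111:B4 LPS for 16 h; TNF-α measured by ELISA (A450) in 25-fold diluted supernatant.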

[3] = test system: AMPKa1 or AMPKa2; experiment: Probe-based (AX9989) kinase profiling in Jurkat lysate: AMPKa1 or AMPKa2; type: binding
Procedure, shortened: as §1

[4] = test system: ABL or ARG; experiment: Probe-based (AX9989) kinase profiling in Jurkat lysate: ABL or ARG; type: binding
Procedure, shortened: as §1

[5] = target: T2, JAK1 (Homo sapiens, UniProt P23458); experiment: Probe-based (AX9989) kinase profiling in Jurkat lysate: JAK1; type: binding; details: read-out: JAK1 Inhibition % at indicated screening concentration; for inhibition at 1 µM: screening concentration 1 μM; for inhibition at 10 µM: screening concentration 10 μM
T2 construct: screened for activity against several kinases in Jurkat cells; endogenous in cells; host or cells: Jurkat cell lysate
T2 sequence (P23458 whole entry): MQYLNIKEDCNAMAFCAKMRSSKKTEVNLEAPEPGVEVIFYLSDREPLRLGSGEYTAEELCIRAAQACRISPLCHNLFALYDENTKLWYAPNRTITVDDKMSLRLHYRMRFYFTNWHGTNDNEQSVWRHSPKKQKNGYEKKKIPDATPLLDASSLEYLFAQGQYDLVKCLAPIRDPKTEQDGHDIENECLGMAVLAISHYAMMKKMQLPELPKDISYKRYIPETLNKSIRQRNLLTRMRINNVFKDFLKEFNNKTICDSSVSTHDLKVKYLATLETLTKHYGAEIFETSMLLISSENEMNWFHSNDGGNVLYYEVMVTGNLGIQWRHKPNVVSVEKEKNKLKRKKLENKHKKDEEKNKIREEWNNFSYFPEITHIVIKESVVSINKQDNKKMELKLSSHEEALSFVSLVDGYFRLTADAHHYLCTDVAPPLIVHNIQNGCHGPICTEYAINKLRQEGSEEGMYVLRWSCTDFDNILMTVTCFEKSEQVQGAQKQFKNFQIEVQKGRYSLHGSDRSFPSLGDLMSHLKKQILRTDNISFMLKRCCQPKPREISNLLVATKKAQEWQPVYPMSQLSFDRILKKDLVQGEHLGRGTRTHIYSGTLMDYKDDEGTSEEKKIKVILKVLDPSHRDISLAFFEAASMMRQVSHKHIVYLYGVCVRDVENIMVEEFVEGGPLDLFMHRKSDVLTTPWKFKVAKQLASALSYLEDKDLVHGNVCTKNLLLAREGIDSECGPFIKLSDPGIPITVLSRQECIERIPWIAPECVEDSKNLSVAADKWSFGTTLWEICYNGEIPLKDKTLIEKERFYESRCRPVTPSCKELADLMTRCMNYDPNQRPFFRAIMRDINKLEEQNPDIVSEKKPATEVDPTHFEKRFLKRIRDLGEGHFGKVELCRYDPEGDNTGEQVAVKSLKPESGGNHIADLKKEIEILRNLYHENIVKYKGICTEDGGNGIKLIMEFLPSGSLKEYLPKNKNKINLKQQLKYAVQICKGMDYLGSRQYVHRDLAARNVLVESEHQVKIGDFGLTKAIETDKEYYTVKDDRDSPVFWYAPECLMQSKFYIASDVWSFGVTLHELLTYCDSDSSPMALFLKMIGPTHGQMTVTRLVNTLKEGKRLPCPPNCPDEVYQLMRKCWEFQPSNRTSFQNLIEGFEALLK
Procedure, shortened: as §1

[6] = target: T3, BRD4 bromodomain domain I [BRD4(1)] (Homo sapiens, UniProt O60885); experiment: BRD4 bromodomain domain 1 inhibition assay (TR-FRET); type: binding; details: for inhibition at 10 µM: screening concentration 10 μM
T3 construct: BRD4 bromodomain domain I [BRD4(1)]; purchased Cayman Chemicals
Procedure, shortened: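 0.5% DMSO, in triplicate, using Cayman BRD4(1) TR-FRET protocol with slight modification. 670/620 nm ratio normalized to 10 μM JQ1, with DMSO control set as 0% inhibition.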

[7] = target: T4, ERK5 (Homo sapiens, UniProt Q13164); experiment: Probe-based (AX9989 acyl phosphate ATP probe) kinase profiling in Jurkat lysate: ERK5; type: binding; details: for IC50: calculated from percent inhibition and screening concentration, Jurkat lysate, AX9989 probe; for inhibition at 1 µM: screening concentration 1 μM; for inhibition at 1 µM / inhibition at 10 µM: read-out: ERK5 Inhibition % at indicated screening concentration; for inhibition at 10 µM: screening concentration 10 μM
T4 construct: screened for activity against several kinases in Jurkat cells; endogenous in cells; host or cells: Jurkat cell lysate
T4 sequence (Q13164 whole entry): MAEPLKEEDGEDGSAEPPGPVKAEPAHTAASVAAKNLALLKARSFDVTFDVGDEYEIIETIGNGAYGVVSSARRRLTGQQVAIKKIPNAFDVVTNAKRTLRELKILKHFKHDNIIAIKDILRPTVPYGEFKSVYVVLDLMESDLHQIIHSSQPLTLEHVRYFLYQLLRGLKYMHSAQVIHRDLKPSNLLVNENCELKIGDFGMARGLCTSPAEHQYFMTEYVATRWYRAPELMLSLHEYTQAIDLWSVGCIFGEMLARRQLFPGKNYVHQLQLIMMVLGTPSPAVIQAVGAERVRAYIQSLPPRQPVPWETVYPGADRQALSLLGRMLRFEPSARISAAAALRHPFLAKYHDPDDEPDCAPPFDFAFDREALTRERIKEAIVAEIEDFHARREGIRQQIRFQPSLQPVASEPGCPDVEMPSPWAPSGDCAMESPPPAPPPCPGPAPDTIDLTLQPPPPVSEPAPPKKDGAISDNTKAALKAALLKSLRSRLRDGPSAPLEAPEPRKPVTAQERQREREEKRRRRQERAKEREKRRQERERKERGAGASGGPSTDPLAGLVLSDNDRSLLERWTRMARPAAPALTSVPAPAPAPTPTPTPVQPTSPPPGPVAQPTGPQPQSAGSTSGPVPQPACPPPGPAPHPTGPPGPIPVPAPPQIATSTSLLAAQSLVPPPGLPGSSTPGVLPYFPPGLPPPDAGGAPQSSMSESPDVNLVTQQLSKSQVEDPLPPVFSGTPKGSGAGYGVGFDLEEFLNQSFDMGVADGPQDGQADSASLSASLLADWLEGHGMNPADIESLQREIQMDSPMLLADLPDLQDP
Procedure, shortened: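 ERK5 IC50 values came from percent inhibition at the screening concentration, measured as loss of LC/MS signal of probe-labelled active-site peptides. Compound was added for 15 min at room temperature to Jurkat lysate (5 mg/ml, 20 mM MnCl2) before labelling with AX9989 ATP acyl phosphate probe at 5 μM.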

Compound | inhibition at 1 µM [1] | AMPKa1 or AMPKa2 Inhibition % at indicated screening concentration ([3]; screening concentration 1 μM) | ABL or ARG Inhibition % at indicated screening concentration ([4]; screening concentration 1 μM) | inhibition at 1 µM [5] | inhibition at 10 µM [6] | IC50 [7] | inhibition at 1 µM [7] | inhibition at 10 µM [1] | AMPKa1 or AMPKa2 Inhibition % at indicated screening concentration ([3]; screening concentration 10 μM) | ABL or ARG Inhibition % at indicated screening concentration ([4]; screening concentration 10 μM) | inhibition at 10 µM [5] | inhibition at 10 µM [7] | IC50 [6] | EC50 [2]
CC(C)Oc1cc(C(=O)N2CCC[C@H](O)C2)ccc1Nc1cc2c(cn1)N(C)C(=O)c1ccccc1N2C [Compound T48] |  |  |  |  | 70 to 85% | 101 to 500 nM |  | ≤ 35% | E (E is ≦35%) | E (E is ≦35%) | ≤ 35% | > 90% |  | 740 nM
CC(C)Oc1cc(C(=O)N2CCN(C3CCN(C)CC3)CC2)ccc1Nc1cc2c(cn1)N(C)C(=O)c1ccccc1N2C [Compound T49] | ≤ 35% | E (E is ≦35%) | E (E is ≦35%) | ≤ 35% | > 85% | 50 to 100 nM | > 90% |  |  |  |  |  |  | 300 ± 120 nM
CCOc1cc(C(=O)N(C)[C@H]2CC[C@H](O)CC2)ccc1Nc1cc2c(cn1)N(C)C(=O)c1ccccc1N2C [Compound T64] | ≤ 35% | E (E is ≦35%) | E (E is ≦35%) | ≤ 35% | 70 to 85% | 50 to 100 nM | > 90% |  |  |  |  |  |  | 620 nM
CN1CCC(N2CCN(C(=O)c3ccc(Nc4cc5c(cn4)N(C)C(=O)c4ccccc4N5C)c(F)c3)CC2)CC1 [Compound T70] | ≤ 35% | E (E is ≦35%) | E (E is ≦35%) | ≤ 35% | < 70% | ≤ 50 nM | > 90% |  |  |  |  |  |  | 2090 nM
CN1C(=O)c2c(F)cccc2Oc2cc(N[C@H]3CC[C@H](O)CC3)ncc21 [Compound T92] |  |  |  |  |  | 101 to 500 nM |  | ≤ 35% | E (E is ≦35%) | E (E is ≦35%) | ≤ 35% | > 90% | < 2000 nM | 440 ± 290 nM
COc1cccc2c1Oc1cc(N[C@H]3CC[C@H](O)CC3)ncc1N(C)C2=O [Compound T95] |  |  |  |  |  | > 500 nM |  | ≤ 35% | D (D is >35% to ≦50%) | E (E is ≦35%) | ≤ 35% | > 90% | 2000 to 5000 nM | 1380 ± 1710 nM
CCOc1cc(C(=O)N2CCN(C3CCN(C)CC3)CC2)ccc1Nc1cc2c(cn1)N(C)C(=O)c1ccccc1O2 [Compound T98] |  |  |  |  |  | 101 to 500 nM |  | ≤ 35% | E (E is ≦35%) | E (E is ≦35%) | ≤ 35% | > 90% | 2000 to 5000 nM | 810 ± 920 nM
C[C@@H]1C[C@H](Nc2cc3c(cn2)N(C)C(=O)c2ccccc2N3C)CC[C@H]1O [Compound T115] |  |  |  |  |  | 101 to 500 nM |  | ≤ 35% | E (E is ≦35%) | E (E is ≦35%) | ≤ 35% | > 90% | 2000 to 5000 nM | 780 ± 690 nM

Continued, in another order:

inhibition at 1 µM [1] | AMPKa1 or AMPKa2 Inhibition % at indicated screening concentration ([3]; screening concentration 1 μM) | ABL or ARG Inhibition % at indicated screening concentration ([4]; screening concentration 1 μM) | inhibition at 1 µM [5] | inhibition at 10 µM [6] | IC50 [7] | inhibition at 1 µM [7] | inhibition at 10 µM [1] | AMPKa1 or AMPKa2 Inhibition % at indicated screening concentration ([3]; screening concentration 10 μM) | ABL or ARG Inhibition % at indicated screening concentration ([4]; screening concentration 10 μM) | inhibition at 10 µM [5] | inhibition at 10 µM [7] | IC50 [6] | Compound | EC50 [2]
≤ 35% | E (E is ≦35%) | E (E is ≦35%) | ≤ 35% | 70 to 85% | ≤ 50 nM | > 90% |  |  |  |  |  |  | CN1CCN(C2CCN(C(=O)c3ccc(Nc4cc5c(cn4)N(C)C(=O)c4ccccc4N5C)c(OCCF)c3)CC2)CC1 [Compound T34] | 490 ± 40 nM
≤ 35% | E (E is ≦35%) | E (E is ≦35%) | ≤ 35% | > 85% | 50 to 100 nM | > 90% |  |  |  |  |  |  | CCOc1cc(C(=O)N2CCC(NC3CCN(C)CC3)C2)ccc1Nc1cc2c(cn1)N(C)C(=O)c1ccccc1N2C (centres unmarked) [Compound T42] | 680 ± 450 nM
≤ 35% | E (E is ≦35%) | E (E is ≦35%) | ≤ 35% | > 85% | 101 to 500 nM | 75 to 90% |  |  |  |  |  |  | CC(C)Oc1cc(C(=O)N2CC[C@@H](NCCF)C2)ccc1Nc1cc2c(cn1)N(C)C(=O)c1ccccc1N2C [Compound T50] | 630 nM
≤ 35% | E (E is ≦35%) | E (E is ≦35%) | ≤ 35% | 70 to 85% | ≤ 50 nM | > 90% |  |  |  |  |  |  | CCOc1cc(C(=O)N2CCN(c3cccnc3)CC2)ccc1Nc1cc2c(cn1)N(C)C(=O)c1occc1N2C [Compound T56] | 300 nM
≤ 35% | E (E is ≦35%) | E (E is ≦35%) | ≤ 35% | 70 to 85% | 101 to 500 nM | 75 to 90% |  |  |  |  |  |  | CCOc1cc(C(=O)N[C@H]2CC[C@H](O)CC2)ccc1Nc1cc2c(cn1)N(C)C(=O)c1ccccc1N2C [Compound T62] | 490 ± 100 nM
≤ 35% | E (E is ≦35%) | E (E is ≦35%) | ≤ 35% | 70 to 85% | ≤ 50 nM | > 90% |  |  |  |  |  |  | CN1CCC(N2CCN(C(=O)c3ccc(Nc4cc5c(cn4)N(C)C(=O)c4ccccc4N5C)c(OC(F)F)c3)CC2)CC1 [Compound T76] | 1110 nM
 |  |  |  |  | > 500 nM |  | ≤ 35% | E (E is ≦35%) | E (E is ≦35%) | ≤ 35% | > 90% | 2000 to 5000 nM | CN1C(=O)c2c(F)ccc(F)c2Oc2cc(N[C@H]3CC[C@H](O)CC3)ncc21 [Compound T97] | 430 ± 450 nM
 |  |  |  |  | 101 to 500 nM |  | ≤ 35% | E (E is ≦35%) | E (E is ≦35%) | ≤ 35% | > 90% | < 2000 nM | CCOc1cc(C(=O)N2CCN(C3CCN(C)CC3)CC2)ccc1Nc1cc2c(cn1)N(C)C(=O)c1c(F)cccc1O2 [Compound T102] | 290 ± 280 nM
